Data taken from patent publication US10718769B2, “Compounds comprising one or more hydrophobic domains and a hydrophilic domain comprising peg moieties, useful for binding cells” (Roche Diagnostics Operations, Inc., priority 2013, dated 2020).
Several values for one entry are separate records, joined by “and”; a condition that tells them apart may be missing. Identical values can stand only once. Like-named read-outs stand apart in the source and are kept apart here.

Assays:
MDA-MB468 cells = details: centrifugation 20 min, 500×g; within 5 h incubation with molecule
Method: Respective columns from left: 1: 10 min incubation with molecule. 2: 1 h incubation with molecule. 3: 3 h incubation with molecule. 4: 5 h min incubation with molecule. Following compounds for use according to the invention were tested: 1234: 5′-(Cholesteryl-TEG)2-Spacer C18-dT-Biotin-TEG-3′; 1255: 3′-(Myristic acid)2-PEG2000-dT-Biotin-TEG-5′ INVERS. […] Centrifugation characteristics: 20 min, 500×g.
Following compounds of the invention were tested: • 1234: 5′-(Cholesteryl-TEG)2-Spacer C18-dT-Biotin-TEG-3′ • 1255: 3′-(Myristic acid)2-PEG2000-dT-Biotin-TEG-5′ INVERS
(§1) Centrifugation characteristics: 20 min, 500×g.

Jurkat cells = details: centrifugation 20 min, 500×g; within 5.5 h incubation with molecule
Method: Respective columns from left: 1: 10 min incubation with molecule. 2: 1 h incubation with molecule. 3: 3,5 h incubation with molecule. 4: 5.5 h min incubation with molecule. Following molecules were tested: 1255: 3′-(Myristic acid)2-PEG2000-dT-Biotin-TEG-5′ INVERS. 1234: 5′-(Cholesteryl-TEG)2-Spacer C18-dT-Biotin-TEG-3′; 1248: 3′-(Cholesteryl-TEG)2-PEG2000-Fluos-Biotin-TEG-5′ INVERS; 1254: 3′-(Cholesteryl-TEG)2-SpacerC18-Fluos-Biotin-TEG-5′ INVERS. […] Centrifugation characteristics: 20 min, 500×g.
(§2) Following molecules were tested: • 1255: 3′-(Myristic acid)2-PEG2000-dT-Biotin-TEG-5′ INVERS • 1234: 5′-(Cholesteryl-TEG)2-Spacer C18-dT-Biotin-TEG-3′ • 1248: 3′-(Cholesteryl-TEG)2-PEG2000-Fluos-Biotin-TEG-5′ INVERS • 1254: 3′-(Cholesteryl-TEG)2-SpacerC18-Fluos-Biotin-TEG-5′ INVERS
as §1

WBC [1] = experiment: WBC recovery rate after centrifugation (stabilization of cells, Example 5); type: cell-based; details: centrifugation 20 min
Method: (§3) Centrifugation characteristics: 10 min, 300×g.
as §3
The respective left, middle and right columns per assay represent different Experimenters 1, 2 and 3. […] Centrifugation characteristics: 10 min, 300×g. Molecule: Cholesteryl-TEG-Cholesteryl-TEG-(SpacerC18)7-Fluos-Biotin-TEG.
(§4) Following molecules were tested: 1234: 5′-(Cholesteryl-TEG)2-Spacer C18-dT-Biotin-TEG-3′; 1248: 3′-(Cholesteryl-TEG)2-PEG2000-Fluos-Biotin-TEG-5′ INVERS; 1254: 3′-(Cholesteryl-TEG)2-SpacerC18-Fluos-Biotin-TEG-5′ INVERS; 1255: 3′-(Myristic acid)2-PEG2000-dT-Biotin-TEG-5′ INVERS. […] Centrifugation characteristics: 20 min, 300×g. Respective left column: 10 min incubation with molecule. Respective middle column: 1 h min incubation with molecule. Respective right column: 2 h incubation with molecule.
Following molecules were tested: 1255: 3′-(Myristic acid)2-PEG2000-dT-Biotin-TEG-5′ INVERS; 1234: 5′-(Cholesteryl-TEG)2-Spacer C18-dT-Biotin-TEG-3′; 1248: 3′-(Cholesteryl-TEG)2-PEG2000-Fluos-Biotin-TEG-5′ INVERS; 1254: 3′-(Cholesteryl-TEG)2-SpacerC18-Fluos-Biotin-TEG-5′ INVERS. […] Centrifugation characteristics: 20 min, 500×g. Respective left column: 10 min incubation with molecule. Respective middle column: 1 h min incubation with molecule. Respective right column: 3 h incubation with molecule.
as §4, with “tested: 1255: 3′-(Myristic acid)2-PEG2000-dT-Biotin-TEG-5′ INVERS;” for “tested:”, “3′-(Cholesteryl-TEG)2-SpacerC18-Fluos-Biotin-TEG-5′” for “3′-(Cholesteryl-TEG)2-SpacerC18-Fluos-Biotin-TEG-5′ INVERS; 1255: 3′-(Myristic acid)2-PEG2000-dT-Biotin-TEG-5′”, “1000×g.” for “300×g.”
The effect of compounds of the invention on stabilizing cells and on immobilization was determined.
Centrifugation characteristics: 10 min, 300×g. A: Choleseryl-TEG-Cholesteryl-TEG-(SpacerC18)7-Fluos-Biotin-TEG.
Centrifugation characteristics: 10 min, 300×g. Molecule: Cholesteryl-TEG-Cholesteryl-TEG-(SpacerC18)7-Fluos-Biotin-TEG.
Centrifugation characteristics: 20 min, 300×g.
as §2

white blood cells (WBCs) = details: for WBC per well: 300 000 WBCs/well
Method: Aim of this experiment: Testing of the white blood cell immobilization on a streptavidin-coated surface using different molecules of the invention. In particular, the performance of a single cholesterol-molecule and different dual-linker molecules (i.e. containing two hydrophobic moieties) was tested. In detail, immobilization of white blood cells (WBCs) on a Streptavidin-coated surface using different linker molecules was tested on a 12-well plate: 300 000 WBCs/well. This was followed by the measurement of the cell recovery rate after immobilization and washing of the cells using the Cellavista instrument (10× Nuclei Operator s9s5).

Hela = experiment: Labelling of cells using compounds of the invention; type: cell-based; details: * one cell stained weakly
Source text: (§5) 2. Labelling of Cells Using Compounds of the Invention

Jurkats = experiment: as above; type: cell-based
Source text: as §5

CHO = experiment: as above; type: cell-based
Source text: as §5

MDA-MB468 = experiment: as above; type: cell-based
Source text: as §5

Epithelial cells = experiment: as above; type: cell-based
Source text: as §5

U937 = experiment: as above; type: cell-based
Source text: as §5

NIH 3T3 = experiment: as above; type: cell-based; details: * one cell not stained
Source text: as §5

COS 7 = experiment: as above; type: cell-based
Source text: as §5

WBC [2] = experiment: Immobilization of cells, recovery rate of cells (Example 3 A and D); type: cell-based; details: WBCs
Method: In the following experiment, the recovery rate of cells was determined.

WBCs = experiment: Labelling of cells using compounds of the invention; type: cell-based
Source text: as §5

[3] = Sample 2, compound concentration: 100 pmol/10e6 WBCs
[4] = Sample 2, compound concentration: 1 nmol/10e6 WBCs

Row | Compound | Stability of Jurkat culture cells during centrifugation (Jurkat cells) | Labelling (staining) of Hela (Hela) | Labelling (staining) of Jurkats (Jurkats) | Labelling (staining) of CHO (CHO) | Labelling (staining) of MDA-MB468 (MDA-MB468) | Labelling (staining) of Epithelial cells (Epithelial cells) | Labelling (staining) of U937 (U937) | Labelling (staining) of NIH 3T3 (NIH 3T3) | Labelling (staining) of COS 7 (COS 7) | also measured
1 | 3′-(Myristic acid)2-PEG2000-dT-Biotin-TEG-5′ INVERS [compound 1255] | stable during centrifugation processes |  |  |  |  |  |  |  |  | Stability of MDA-MB468 culture cells during centrifugation (MDA-MB468 cells): stable during centrifugation processes; Performance in WBC recovery rate after centrifugation (ranking) (WBC [1]; 300×g): followed by compound 1255; Performance in WBC recovery rate after centrifugation (ranking) (WBC [1]; 500×g): followed by molecule 1255
2 | 5′-(Cholesteryl-TEG)2-Spacer C18-Fluos-Biotin_TEG-3′ INVERS [29.891254] | stable during centrifugation processes |  |  |  |  |  |  |  |  | WBC per well (white blood cells (WBCs); Sample 1, first block of the table (r4-r12), footnote: 1 nmol/10e6 WBCs): 157660 and 190148 and 170850; WBC per well (white blood cells (WBCs); Sample 1, second block of the table (r13-r21), compound concentration: 1 nmol/10e6 WBCs): 244649 and 234262 and 260760; Mean (WBC per well) (white blood cells (WBCs); [3]): 197067.00; WBC per well (white blood cells (WBCs); [3]): 200184 and 205917 and 185100; Mean (WBC per well) (white blood cells (WBCs); [4]): 245376.00; WBC per well (white blood cells (WBCs); [4]): 244396 and 244304 and 247428
3 | 5′-(Cholesteryl-TEG)2-Spacer C18-dT-Biotin-TEG-3′ [compound 1234] | stable during centrifugation processes |  |  |  |  |  |  |  |  | Stability of MDA-MB468 culture cells during centrifugation (MDA-MB468 cells): stable during centrifugation processes
4 | 5′-CholesterylTEG-CholesterylTEG-PEG2000-Fluos-3′ [BMO 29.891133] |  | √ | √ | √ | √ | √ | √ | √ | √ | 
5 | 5′-CholesterylTEG-CholesterylTEG-PEG2000-Fluos-BiotinTEG-3′ [BMO 29.891180] |  |  |  |  |  |  |  |  |  | staining (Remarks) (WBC [2]): strong
6 | CCCCCCCCCCCCCCCCCCN1C(=CC=CC2=[N+](CCCCCCCCCCCCCCCCCC)c3ccccc3C2(C)C)C(C)(C)c2ccccc21.[O-][Cl+3]([O-])([O-])[O-] [1,1′-Dioctadecyl-3,3,3′,3′-tetramethylindocarbocyanin perchlorate] |  | √ | √ | √ | √ | √ | √ | √* | √ | Labelling (staining) of WBCs (WBCs): √ not all
7 | CCCCC/C=C\C/C=C\CCCCCCCCN1C(=CC=CC2=[N+](CCCCCCCC/C=C\C/C=C\CCCCC)c3ccccc3C2(C)C)C(C)(C)c2ccccc21.[O-][Cl+3]([O-])([O-])[O-] [Linol, 1,1′-dilinoleyl-3,3,3′,3′-tetramethylindocarbocyanine perchlorate] |  | √ | √ | √ | √ | √ | √ | √ | √ | 
8 | CCCCCCCCCCCCCCCCCCCCCC[N+]1=C(/C=C/C=C2/N(CCCCCCCCCCCCCC)c3ccccc3C2(C)C)C(C)(C)c2ccccc21.[I-] [PKH26] |  | √* | √ | √ | √ | √ not all | √ | √ | √ | 
